Data from patent US20240174693A1, “SOMATOSTATIN RECEPTOR SUBTYPE 4 (SSTR4) AGONISTS AND THEIR APPLICATIONS” (Humanwell Pharmaceutical US, priority 2022, published 2024).

Assays:
[1] = test system: KM mice; experiment: Acetic acid induced writhing test; assay type: in vivo; details: 30 mg/kg s.c.; for No. of writhing's: 0.6% acetic acid 15 min after dosing, 30-minute period; for Percentage of Inhibition / Significant compared to the model group: writhing
Protocol: Fifteen minutes after administration, a 0.6% acetic acid solution (5 mL/kg) was injected into the abdominal cavity. The mice were then placed in an observation box, and the number of writhing episodes was recorded within a 30-minute period. The assessment of pain intensity was based on the observation of the mice's writhing behavior.

[2] = test system: SD rats; experiment: SD rat carrageenan acute inflammation model; assay type: in vivo; details: SD rat carrageenan
Protocol: Using an electronic caliper for accuracy, the thickness of the rat's footpad was measured. Rats were then restrained, and 100 μl of 1% carrageenan was subcutaneously injected into the right hind footpad to induce inflammation, thereby establishing an acute inflammation model using carrageenan. Each compound was administered in advance according to the respective dosing time points. The swelling of the rat's foot was measured at various time points: before modeling (0 h) and after modeling (2, 4, 7 h). A comparison was made between footpad swelling before and after modeling. […] The results of the carrageenan-induced acute inflammation model experiment are depicted in FIG. 1.

[3] = biological target: T1, SSTR4 (Homo sapiens, UniProt P31391); experiment: FLIPR assay for agonists, HEK293/Gα15/SSTR4 cells; assay type: cell-based; details: read-out: SSTR4 Agonist Activity in FLIPR Assay EC50
T1 construct: host or cells: HEK293/Gα15/SSTR4
T1 sequence (P31391 whole entry): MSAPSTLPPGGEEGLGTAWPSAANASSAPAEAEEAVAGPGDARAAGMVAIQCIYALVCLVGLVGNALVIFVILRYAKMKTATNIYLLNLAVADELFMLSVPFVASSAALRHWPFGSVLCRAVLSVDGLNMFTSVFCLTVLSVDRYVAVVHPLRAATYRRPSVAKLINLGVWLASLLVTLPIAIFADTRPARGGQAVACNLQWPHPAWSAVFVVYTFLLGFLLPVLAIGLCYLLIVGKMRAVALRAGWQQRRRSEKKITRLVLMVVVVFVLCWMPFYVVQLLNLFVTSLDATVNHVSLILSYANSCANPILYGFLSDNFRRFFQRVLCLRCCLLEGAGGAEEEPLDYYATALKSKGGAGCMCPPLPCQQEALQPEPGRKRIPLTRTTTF
Protocol: The study was carried out at HD Biosciences (Shanghai, China) according to the following steps.
Step 1: Test compounds were diluted to a 400×stock solution in DMSO in a 384-well plate.
Step 2: 1 μL of the compound solution was transferred from Step 1 to 79 μL of assay buffer, creating a 5×working solution in the 384-well plate using the Bravo method.
Step 3: HEK293/Gα15/SSTR1-5 cells were cultured in DMEM medium (10% FBS).
Step 4: When cells reached 80% confluence, the cells were separated using 0.25% trypsin-EDTA.
Step 5: The cell density was measured and the cells diluted to 1×10^6/mL using DMEM (10% FBS).
Step 6: 30 μL of cells were dispensed into each well of a Matrigel-coated 384-well plate (Corning 3764#) using a multi-channel pipette (30,000 cells per well) and cultured for 20-24 hours at 37° C. and 5% CO2.
Step 7: 10 μL of dye was added to each well in the cell plate prepared in Step 6.
Step 8: The dye and cells were incubated in the dark at 37° C. and 5% CO2 for 1 hour.
Step 9: After 1 hour, the FLIPR program was loaded, the pipette tips placed cell plate and compound plate (from Step 2) into the machine, and the run button was pressed. The program added 10 μL to 40 μL to the cell plate. FLIPR was used to read the plate at room temperature according to the specified settings and the data was saved.

[4] = In vivo PK study; details: po, 3 mg/kg p.o.

Compound: CC(C)(NC(=O)[C@@H]1[C@@H]2C[C@H]1CN(C(=N)N)C2)c1ncc2c(Cl)cccn12 [Compound 21, (1R,5S,6r)-3-carbamimidoyl-N-(2-(8-chloroimidazo[1,5-a]pyridin-3-yl)propan-2-yl)-3-azabicyclo[3.1.1]heptane-6-carboxamide]
- No. of writhing's [1]: 9
- Percentage of Inhibition [1]: 71%
- Significant compared to the model group [1]: Yes

Compound: CC(=O)Oc1ccccc1C(=O)O [Aspirin]
- Changes in Foot Swelling Rate (Mean ± SEM) ([2]; 0 h (before modeling)): 0%
- Foot Swelling Degrees (Mean ± SEM) ([2]; 0 h (before modeling)): 4.08 ± 0.10 mm
- Changes in Foot Swelling Rate (Mean ± SEM) ([2]; 2 h after modeling): 33.44 ± 4.56%
- Foot Swelling Degrees (Mean ± SEM) ([2]; 2 h after modeling): 5.42 ± 0.11 mm
- Changes in Foot Swelling Rate (Mean ± SEM) ([2]; 4 h after modeling): 24.42 ± 6.86%
- Foot Swelling Degrees (Mean ± SEM) ([2]; 4 h after modeling): 5.05 ± 0.21 mm
- Changes in Foot Swelling Rate (Mean ± SEM) ([2]; 7 h after modeling): 19.72 ± 3.24%
- Foot Swelling Degrees (Mean ± SEM) ([2]; 7 h after modeling): 4.87 ± 0.07 mm

Compound: COc1ccc(-c2cccn3c(C(C)(C)NC(=O)[C@H]4[C@@H]5CNC[C@H]4C5)ncc23)cc1 [Compound 12, (1R,5S,6r)-N-(2-(8-(4-methoxyphenyl)imidazo[1,5-a]pyridin-3-yl)propan-2-yl)-3-azabicyclo[3.1.1]heptane-6-carboxamide]
- No. of writhing's [1]: 10
- Percentage of Inhibition [1]: 54.16%
- Significant compared to the model group [1]: Yes

Compound: CC(C)(NC(=O)[C@@H]1[C@@H]2CNC[C@H]1C2)c1ncc2c(Br)cccn12 [Compound 3, (1R,5S,6s)-N-(2-(8-bromoimidazo[1,5-a]pyridin-3-yl)propan-2-yl)-3-azabicyclo[3.1.1]heptane-6-carboxamide]
- EC50 [3]: > 1000 nM

Compound: CC(C)C[C@H](CN)CC(=O)O [Pregabalin]
- Changes in Foot Swelling Rate (Mean ± SEM) ([2]; 0 h (before modeling)): 0%
- Foot Swelling Degrees (Mean ± SEM) ([2]; 0 h (before modeling)): 4.06 ± 0.07 mm
- Changes in Foot Swelling Rate (Mean ± SEM) ([2]; 2 h after modeling): 41.54 ± 1.45%
- Foot Swelling Degrees (Mean ± SEM) ([2]; 2 h after modeling): 5.74 ± 0.09 mm
- Changes in Foot Swelling Rate (Mean ± SEM) ([2]; 4 h after modeling): 35.68 ± 2.85%
- Foot Swelling Degrees (Mean ± SEM) ([2]; 4 h after modeling): 5.49 ± 0.09 mm
- Changes in Foot Swelling Rate (Mean ± SEM) ([2]; 7 h after modeling): 37.64 ± 2.63%
- Foot Swelling Degrees (Mean ± SEM) ([2]; 7 h after modeling): 5.58 ± 0.13 mm

Compound: CC(C)(NC(=O)[C@@H]1[C@@H]2C[C@H]1CN(C(=N)N)C2)c1nc(C2CC2)c2ccccn12 [Compound 22, (1R,5S,6r)-3-carbamimidoyl-N-(2-(1-cyclopropylimidazo[1,5-a]pyridin-3-yl)propan-2-yl)-3-azabicyclo[3.1.1]heptane-6-carboxamide]
- AUC(0-t) [4]: 1.3 ng·h/mL
- Cmax [4]: 5.56 ng/mL
- MRT inf [4]: 11.4 min
- Tmax [4]: 11.4 min
- No. of writhing's [1]: 7 ± 2
- Percentage of Inhibition [1]: 82.45 ± 5.13%
- Significant compared to the model group [1]: Yes
